Reference: article PMC6079014, “Calcium is an essential cofactor for metal efflux by the ferroportin transporter family” (Nature Communications, 2018)
Values joined by “and” are separate entries in the source; they are usually repeats but may differ in a detail not shown here. Equal entries are not always repeated.

Key:
human Fpn [1] = biological target: T1, human Fpn (Homo sapiens, UniProt Q9NP59); test: Radiotracer metal efflux assay in Xenopus oocytes expressing human Fpn; assay type: cell-based
T1 construct: expressed in transfected cells; host or cells: Xenopus laevis oocytes injected with Fpn RNA
T1 sequence (Q9NP59 1-571): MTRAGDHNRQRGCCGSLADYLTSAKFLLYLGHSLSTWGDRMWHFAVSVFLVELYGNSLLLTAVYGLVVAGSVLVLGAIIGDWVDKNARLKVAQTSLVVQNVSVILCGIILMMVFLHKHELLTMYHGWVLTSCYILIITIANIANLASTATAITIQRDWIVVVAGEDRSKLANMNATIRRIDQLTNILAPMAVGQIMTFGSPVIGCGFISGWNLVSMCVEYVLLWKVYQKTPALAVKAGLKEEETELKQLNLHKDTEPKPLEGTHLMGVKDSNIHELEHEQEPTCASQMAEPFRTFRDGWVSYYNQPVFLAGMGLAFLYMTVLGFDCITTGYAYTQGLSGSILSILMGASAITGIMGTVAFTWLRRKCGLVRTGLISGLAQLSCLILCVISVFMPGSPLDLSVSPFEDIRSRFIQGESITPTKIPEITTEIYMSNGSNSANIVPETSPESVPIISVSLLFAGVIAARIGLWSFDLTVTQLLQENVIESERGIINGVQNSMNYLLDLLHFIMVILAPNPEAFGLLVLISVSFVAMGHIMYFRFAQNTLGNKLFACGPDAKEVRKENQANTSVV
Procedure: We performed laparotomy and ovariectomy on adult female Xenopus laevis frogs (Nasco, Fort Atkinson, WI) under 2-aminoethylbenzoate methanesulfonate anesthesia (0.2%, by immersion, to effect) following a protocol approved by the University of Cincinnati Institutional Animal Care and Use Committee. Ovarian tissue was isolated and treated for 3 h with […] collagenase A (Roche Diagnostics Corp., Indianapolis, IN) in calcium-free-modified Barths’ medium (MBM) of composition 88 mM NaCl, 1 mM KCl, 2.4 mM NaHCO3, 1.57 mM MgSO4, 0.66 mM NaNO3, 10 mM 4-(2-hydroxyethyl)-1-piperazineethanesulfonic acid (HEPES), buffered to pH 7.5 by using 2-amino-2-hydroxymethyl-propane-1,3-diol (Tris base). We isolated defolliculate stage V–VI oocytes stored at 17 °C in MBM of composition 88 mM NaCl, 1 mM KCl, 2.4 mM NaHCO3, 0.82 MgSO4, 0.75 mM CaCl2, 0.66 mM NaNO3, 10 mM HEPES, buffered to pH 7.5 by using Tris base, with 50 mg l^−1 ciprofloxacin. We expressed in Xenopus oocytes the 1A transcript form of human Fpn fused at its C-terminus with the enhanced green fluorescent protein (GFP) as described. Oocytes were injected with ∼50 ng of Fpn RNA and incubated for 4–6 days before being used in functional assays. Control oocytes were noninjected.
We measured metal efflux from oocytes expressing Fpn by using a radiotracer assay. Radiochemicals ^55Fe, ^45Ca, ^57Co, ^65Zn were obtained from Perkin-Elmer Life Science Products (Boston, MA) and ^63Ni from the National Isotope Development Center (Oak Ridge, TN). We used ^55Fe (added as FeCl3) at final specific activity 0.4–2.0 GBq mg^−1, ^45Ca (added as CaCl2) at final specific activity 0.5–0.9 GBq mg^−1, ^57Co (added as CoCl2) at final specific activity 1.6 GBq mg^−1, ^65Zn (added as ZnCl2) at final specific activity 0.2 GBq mg^−1, and ^63Ni (added as NiCl2) at final specific activity 0.6 GBq mg^−1. Oocytes were injected with 50 nl of 5 μM metal radionuclide (*M) in vehicle of composition 250 mM KCl, 5 mM nitrilotriacetic acid, trisodium salt, buffered to pH 7.0 with ∼4 mM 2-(N-morpholino)ethanesulfonic acid (MES) (GFS Chemicals, Columbus, OH). After injection, oocytes were briefly stored in ice-cold MBM (for 1–5 min) prior to the start of the efflux assay.
To initiate the efflux assay, we placed oocytes in standard efflux medium of composition 100 mM NaCl, 1 mM KCl, 2 mM CaCl2, 1 mM MgCl2, 0.5 mM bathophenanthroline disulfonic acid (BPS), 1 mM nitrilotriacetic acid (NTA) trisodium salt, 50 μg/ml apotransferrin (ApoTf) (R&D Systems Inc., Minneapolis, MN), buffered with 0–5 mM MES, and 0–5 mM N′,N′-diethylpiperazine to obtain pH 7.5, with the following exceptions. To prepare Ca^2+-free medium, we replaced 2 mM CaCl2 with 4 mM NaCl and added 1 mM ethylene glycol-bis(2-aminoethyl ether)-N,N,N′,N′-tetraacetic acid (EGTA). To prepare Mg^2+-free medium, we replaced […] MgCl2 with 4 mM NaCl and added 1 mM ethylenediaminetetraacetic acid (EDTA). To measure ^55Fe efflux as a function of extracellular [Ca^2+] over the range 0.1–20 mM Ca^2+ (Figs. 1c, 6b), we adjusted [NaCl] and [CaCl2] on a 2:1 molar basis without the addition of EGTA. Oocytes were then transferred individually in 200 µl of medium to flat-bottomed wells of a 96-well plate and incubated 30 min—within the linear phase of metal efflux[10] —at 23–27 °C with gentle rocking. To terminate efflux, we removed 150 µl of medium (0.75 × [N0–Nt]) from each well for liquid-scintillation counting in Ultima Gold liquid-scintillation cocktail (Perkin-Elmer, Waltham, MA). The corresponding oocytes were rinsed twice in ice-cold medium (without BPS), solubilized with 5% (w/v) sodium dodecyl sulfate, and counted (Nt). We fit our data for oocyte radiotracer content (N) over time (Eq. (1)) and obtained the first-order rate constant (k) for metal radionuclide (*M) efflux for individual oocytes. N0 and Nt are counts per min (cpm) in the oocyte at time = 0 and time = t, respectively.1 Nt=N0⋅exp(-k⋅t) […]

BbFpn D24A = BbFpn D24A (Bdellovibrio bacteriovorus, UniProt Q6MLJ0, D24A); test: Isothermal titration calorimetry, D24A BbFpn; assay type: binding, Bdellovibrio bacteriovorous
BbFpn D24A, sequence (Q6MLJ0 whole entry D24A): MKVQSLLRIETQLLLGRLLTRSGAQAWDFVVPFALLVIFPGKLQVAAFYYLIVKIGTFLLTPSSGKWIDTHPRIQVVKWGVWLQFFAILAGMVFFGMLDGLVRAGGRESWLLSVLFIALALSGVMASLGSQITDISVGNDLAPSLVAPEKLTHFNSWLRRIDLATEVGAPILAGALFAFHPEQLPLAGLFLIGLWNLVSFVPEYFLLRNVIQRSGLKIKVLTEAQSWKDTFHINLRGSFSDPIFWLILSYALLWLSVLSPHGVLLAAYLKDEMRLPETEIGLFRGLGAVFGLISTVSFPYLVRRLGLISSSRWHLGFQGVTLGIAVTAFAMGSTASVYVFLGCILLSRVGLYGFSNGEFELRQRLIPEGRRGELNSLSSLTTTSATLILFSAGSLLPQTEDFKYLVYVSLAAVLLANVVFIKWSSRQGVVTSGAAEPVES

human Fpn [2] = biological target: T1, human Fpn; test: Radiotracer metal efflux assay in Xenopus oocytes expressing human Fpn; assay type: cell-based; conditions: 2 mM extracellular Ca2+ vs 0 mM Ca2+ plus 1 mM EGTA; 50 nl of 50 µM 65Zn injected
[3] = 2 mM extracellular Ca2+ vs 0 mM Ca2+ plus 1 mM EGTA

## [Ca+2] [Ca^2+, calcium]
Human Fpn [1]
  EC50: 900 µM and 800 to 900 µM and 800 µM
Human Fpn [1]; [3]
  Dependence of Fpn-mediated 55Fe efflux on extracellular Ca2+: dependent
  Effect of extracellular Ca2+ on Fpn-mediated 57Co efflux: activated
  Effect of extracellular Ca2+ on Fpn-mediated 63Ni efflux: activated
Human Fpn [1]; oocytes injected with 45Ca
  45Ca efflux from oocytes expressing Fpn vs control: did not stimulate
BbFpn D24A
  Binding to D24A BbFpn by ITC (in words): complete loss
Human Fpn [2]
  Effect of extracellular Ca2+ on Fpn-mediated 65Zn efflux: activated
